Source: patent US6974568B2, “Treatment for cough” (The Regents of the University of California, priority 2000, dated 2005)

Assays:
[1] = system: bronchial smooth muscle; test: Bronchoconstriction in vagotomized, atropine-treated guinea pigs; assay type: in vivo, guinea pig; conditions: for bronchial muscle constriction, % of maximal bronchospasm: tracheal administration, n=6; for effect on anandamide bronchoconstriction in vivo: antagonist before anandamide
[2] = system: guinea pig lung parenchyma strips; test: Isolated lung strips, muscle contraction; conditions: for effect on anandamide bronchoconstriction in vitro: SR141716A 1 μM, lung strips
Description: Guinea pig parenchimal strips were prepared essentially as described in Samhoun, M. N., et al. (1984) Prostaglandins, 27, 711-724. The strips were placed in 10-ml organ baths containing Krebs' buffer (in mM: NaCl, 118; KCl, 4; K2HPO4, 1.2; MgSO4, 1.2; CaCl2, 2.5; NaHCO3, 25.0; glucose, 11.2; supplemented with […] atropine sulfate and […] indomethacin) at 37° C. and aerated with an oxygen/carbon dioxide mixture (95/5%). Muscle contractions were recorded with an isometric force transducer (U. Basile) and expressed in dyne per mg of fresh tissue.

[3] = system: capsaicin-evoked bronchospasm; test: Capsaicin-evoked bronchospasm in anesthetized guinea pigs; assay type: in vivo, guinea pig; conditions: for effect on capsaicin-evoked bronchospasm: administered systemically before capsaicin; for reversal of anandamide's inhibition of capsaicin-evoked bronchospasm: antagonist given with anandamide, SR141716A 0.5 mg per kg i.v., SR144528 0.3 mg per kg i.v. (maximal dose); for intrinsic effect on capsaicin-evoked bronchoconstriction: capsaicin via tracheal catheter or i.v., antagonist i.v.
[4] = system: bronchial smooth muscle; test: Direct bronchomotor action in anesthetized animals with intact vagus; assay type: in vivo, guinea pig
[5] = system: capsaicin-evoked cough; conditions: guinea pig, in vivo
[6] = system: capsaicin-evoked bronchospasm; test: Capsaicin-evoked bronchospasm in anesthetized rats; assay type: in vivo, rat; conditions: n=3
[7] = system: bronchial smooth muscle; test: Bronchoconstriction in vagotomized, atropine-treated rats; assay type: in vivo, rat; conditions: after vagotomy and atropine, n=3
[8] = capsazepine 0.2 mg per kg, i.v.

CCCCCCC(C)(C)c1cc(O)c2c(c1)OC(C)(C)[C@@H]1CC=C(CO)C[C@@H]21 [HU210]
bronchial muscle constriction, % of maximal bronchospasm ([1]; 0.1 mg per animal): 10.0±0.6%
bronchial muscle constriction, % of maximal bronchospasm ([1]; 1 mg per animal): 30±1.2%
bronchial muscle constriction, % of maximal bronchospasm ([1]; 10 mg per animal): 60±2.2%
bronchial muscle constriction, % of maximal bronchospasm ([1]; 30 mg per animal): 100%

CCCCC/C=C\C/C=C\C/C=C\C/C=C\CCCC(=O)Nc1ccc(O)cc1 [N-(4-hydroxyphenyl)-arachidonamide]
anandamide-evoked contraction of isolated lung strips ([2]; anandamide 50 μM plus N-(4-hydroxyphenyl)-arachidonamide 28 μM, P<0.05, n=6): 0.638±0.06 dyne/mg of tissue

CCCCCCCCCCCCCCCC(=O)NCCO [Palmitylethanolamide]
effect on capsaicin-evoked bronchospasm [3]: ineffective

Cc1c(C(=O)NN2CCCCC2)nn(-c2ccc(Cl)cc2Cl)c1-c1ccc(Cl)cc1 [SR141716A]
effect on anandamide bronchoconstriction in vitro [2]: blocked
bronchomotor consequences per se ([4]; antagonist alone, without capsaicin, guinea pigs): no bronchomotor consequences per se
reversal of anandamide's inhibition of capsaicin-evoked bronchospasm [3]: completely reversed
bronchospasm, % of maximal bronchospasm ([3]; capsaicin i.v. after SR141716A 0.5 mg per kg i.v., P<0.05, n=3): 92.3±3.4%
intrinsic effect on capsaicin-evoked bronchoconstriction [3]: significantly enhanced
effect on anandamide bronchoconstriction in vivo [1]: blocked
effect of CB1 receptor blockade on anandamide's reduction of capsaicin-evoked cough ([5]; iv): abrogated
intrinsic effect on capsaicin-evoked coughing ([5]; iv): significantly enhanced

CCCCC/C=C\C/C=C\C/C=C\C/C=C\CCCC(=O)NCCO [anandamide, arachidonylethanolamide]
contraction of isolated lung strips ([2]; anandamide 50 μM alone, n=6): 0.336±0.07 dyne/mg of tissue
bronchoconstriction, % of maximal ([4]; 5 mg per kg (highest dose tested), mean±s.e.m., n=5): 11.8±5.9%
direct bronchomotor action ([4]; doses below the highest dose tested (5 mg per kg), species not given): no direct bronchomotor action
effect on capsaicin-evoked bronchospasm [3]: abrogated
bronchomotor effect after vagotomy and atropine ([1]; systemic application, guinea pigs): dose-dependent bronchoconstriction
bronchospasm, % of maximal bronchospasm ([6]; capsaicin intratracheal after anandamide 1 mg per kg i.v.): 14±7%
visual signs of cannabinoid intoxication [5]: not accompanied by any visual signs of cannabinoid intoxication
bronchoconstriction, % of maximal bronchospasm ([7]; 1 mg per kg i.v.): 0±0%
bronchoconstriction, % of maximal bronchospasm ([7]; 3 mg per kg i.v.): 12±1.7%
bronchoconstriction, % of maximal bronchospasm ([7]; 5 mg per kg i.v.): 18.3±1.2%

COc1cc(CNC(=O)CCCC/C=C/C(C)C)ccc1O [capsaicin]
bronchospasm, % of maximal bronchospasm ([3]; capsaicin alone, i.v., n=3): 55.3±8.2%
bronchospasm, % of maximal bronchospasm ([6]; capsaicin 30 mg per animal, intratracheal): 55±12%
bronchospasm, % of maximal bronchospasm ([6]; capsaicin 100 mg per animal, intratracheal): 81±19%
bronchospasm, % of maximal bronchospasm ([6]; capsaicin intratracheal alone (anandamide experiment)): 37.2±4.2%
bronchospasm, % of maximal bronchospasm ([6]; capsaicin, intratracheal, mean±s.e.m.): 41±6%

Oc1cc2c(cc1O)CN(C(=S)NCCc1ccc(Cl)cc1)CCC2 [capsazepine]
effect on the capsaicin response (bronchospasm) [3, 8]: completely prevented
effect on anandamide-evoked bronchospasm [1, 8]: had no effect

SR144528
effect on anandamide bronchoconstriction in vitro [2]: had no such effect
reversal of anandamide's inhibition of capsaicin-evoked bronchospasm [3]: only slightly reduced
intrinsic effect on capsaicin-evoked bronchoconstriction [3]: had no such effects
effect on anandamide bronchoconstriction in vivo [1]: had no such effect
intrinsic effect on capsaicin-evoked coughing ([5]; iv): had no such effects
